Experimental data as given in US20150197536A1, “COMPOUNDS REDUCING THE PRODUCTION OF SORBITOL IN THE EYE AND METHODS OF USING THE SAME” (THE REGENTS OF THE UNIVERSITY OF COLORADO, a body corporate, priority 2012, published 2015).

Columns and labels:
[1] = system: lenses of PAR40 transgenic mice that express human AKR1B1; experiment: Sorbitol accumulation in lenses of PAR40 transgenic mice cultured ex vivo; type: cell-based; conditions: PAR40 transgenic mice expressing human AKR1B1; hyperglycemic conditions; lenses excised and cultured ex vivo; FIG. 4B/5B
AKR1A1 = molecular target: T1, AKR1A1 (Homo sapiens, UniProt P14550); experiment: Aldo keto reductase specificity, AKR1A1; type: biochemical; conditions: FIG. 3B; result in words
T1 sequence (P14550 1-325): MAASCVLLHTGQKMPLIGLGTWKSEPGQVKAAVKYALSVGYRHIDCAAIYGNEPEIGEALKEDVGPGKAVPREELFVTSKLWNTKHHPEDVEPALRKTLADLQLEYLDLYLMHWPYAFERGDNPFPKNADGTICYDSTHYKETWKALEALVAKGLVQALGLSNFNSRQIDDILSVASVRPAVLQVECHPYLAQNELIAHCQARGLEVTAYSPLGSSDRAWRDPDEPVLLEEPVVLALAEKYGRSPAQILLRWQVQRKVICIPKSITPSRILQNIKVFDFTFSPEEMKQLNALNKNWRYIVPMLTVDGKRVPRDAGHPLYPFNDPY

[2] = system: Raw264.7 murine macrophages; experiment: Sorbitol accumulation in Raw264.7 murine macrophages; type: cell-based; conditions: FIG. 4A/5A
AKR1B10 = AKR1B10 (Homo sapiens, UniProt O60218); experiment: Aldo keto reductase specificity, AKR1B10; type: biochemical; conditions: FIG. 3B; result in words
diabetic cataracts = conditions: active ingredient of gooseberry extracts; Puppala et al. 2012; cited from earlier work

AKR1B10, sequence (O60218 whole entry, species assumed): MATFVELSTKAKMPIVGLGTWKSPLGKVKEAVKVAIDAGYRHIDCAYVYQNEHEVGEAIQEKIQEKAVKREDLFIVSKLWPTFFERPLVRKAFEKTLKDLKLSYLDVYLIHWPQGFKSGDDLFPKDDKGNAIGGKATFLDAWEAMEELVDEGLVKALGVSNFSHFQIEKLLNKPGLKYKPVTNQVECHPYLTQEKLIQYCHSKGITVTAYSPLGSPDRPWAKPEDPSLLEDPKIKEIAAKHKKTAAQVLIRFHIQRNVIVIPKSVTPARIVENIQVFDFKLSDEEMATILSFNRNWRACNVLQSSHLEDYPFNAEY

Structure (SMILES)	sorbitol accumulation [1]	specificity for AKR1B1 over AKR1A1 (AKR1A1)	sorbitol accumulation [2]	specificity for AKR1B1 over AKR1B10 (AKR1B10)	efficacy in slowing the progression of diabetic cataracts (diabetic cataracts)
O=C(N[C@@H]1O[C@H](CO)[C@@H](O)[C@H](O)[C@H]1O)c1cc(O)c(O)c(O)c1 [BGA, 1-deoxy-1-(3,4,5-trihydroxybenzamido)-β-D-glucopyranose]	blocks sorbitol accumulation	displays specificity for AKR1B1 over other aldo keto reductase enzymes	blocks sorbitol accumulation	displays specificity for AKR1B1 over other aldo keto reductase enzymes	–
O=C(O[C@@H]1O[C@H](CO)[C@@H](O)[C@H](O)[C@H]1O)c1cc(O)c(O)c(O)c1 [BGG, 1-O-(3,4,5-trihydroxybenzoyl)-β-D-glucopyranose]	–	–	–	–	efficacy in slowing the progression of diabetic cataracts
